Active and inactive are the calls of the source.
Legend:
[1] = cytotoxicity toward DRD oncogenic fibroblasts, dose response, cell-based, non-viral oncogenic, luminescence (AID 1934); assay type: functional; conditions: Homo sapiens
Caspase-6 = molecular target: T1, Caspase-6 (Homo sapiens, UniProt P55212); assay: human caspase-6 inhibitors, dose response, biochemical, VEID-R110 fluorescence, cherry-pick (AID 720632)
T1 sequence (P55212 whole entry): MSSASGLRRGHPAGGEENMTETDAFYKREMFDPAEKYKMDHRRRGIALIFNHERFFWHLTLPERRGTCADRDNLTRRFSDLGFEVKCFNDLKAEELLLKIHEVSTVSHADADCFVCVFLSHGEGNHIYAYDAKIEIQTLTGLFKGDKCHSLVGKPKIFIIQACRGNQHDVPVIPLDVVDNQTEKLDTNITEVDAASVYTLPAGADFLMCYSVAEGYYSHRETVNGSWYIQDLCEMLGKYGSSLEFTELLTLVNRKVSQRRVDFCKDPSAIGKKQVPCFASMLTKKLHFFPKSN

[2] = inhibitors of SNCA 5'UTR-driven reporter translation, confirmation, H4 neuroglioma cells, luminescence (AID 1988); assay type: functional, cell-based
[3] = Luminescence Cell-Based Dose Response HTS to Identify Inhibitors of 5'UTR Stem-Loop Driven Prion Protein mRNA Translation in H4 Neuroglioblastoma Cells. [Related pubchem assays: 1827 (Project Summary), 1813 (Primary HTS)]; assay type: functional
[4] = HepG2 cell cytotoxicity, dose response, cytotoxicity control for Shn3 inhibitor project, CellTiter-Glo, cherry-picked (AID 624134); assay type: functional, cell-based
BJ [5] = assay: cytotoxicity toward BJ-TERT-LT-ST fibroblasts, dose response, cell-based, RAS-independent, luminescence (AID 1935); assay type: functional; conditions: Homo sapiens;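 note: BJ fibroblasts immortalized with TERT plus LT and ST oncogenes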
Protein RecA = molecular target: T2, Protein RecA (Mycobacterium tuberculosis, UniProt P9WHJ3); assay: Fluorescence Cell-Free Homogeneous Dose Retest to Identify Inhibitors of RecA-Intein Splicing Activity. [Related pubchem assays (depositor defined):AID2097, AID2223, AID489010, AID492950]; assay type: functional
T2 sequence (P9WHJ3 whole entry): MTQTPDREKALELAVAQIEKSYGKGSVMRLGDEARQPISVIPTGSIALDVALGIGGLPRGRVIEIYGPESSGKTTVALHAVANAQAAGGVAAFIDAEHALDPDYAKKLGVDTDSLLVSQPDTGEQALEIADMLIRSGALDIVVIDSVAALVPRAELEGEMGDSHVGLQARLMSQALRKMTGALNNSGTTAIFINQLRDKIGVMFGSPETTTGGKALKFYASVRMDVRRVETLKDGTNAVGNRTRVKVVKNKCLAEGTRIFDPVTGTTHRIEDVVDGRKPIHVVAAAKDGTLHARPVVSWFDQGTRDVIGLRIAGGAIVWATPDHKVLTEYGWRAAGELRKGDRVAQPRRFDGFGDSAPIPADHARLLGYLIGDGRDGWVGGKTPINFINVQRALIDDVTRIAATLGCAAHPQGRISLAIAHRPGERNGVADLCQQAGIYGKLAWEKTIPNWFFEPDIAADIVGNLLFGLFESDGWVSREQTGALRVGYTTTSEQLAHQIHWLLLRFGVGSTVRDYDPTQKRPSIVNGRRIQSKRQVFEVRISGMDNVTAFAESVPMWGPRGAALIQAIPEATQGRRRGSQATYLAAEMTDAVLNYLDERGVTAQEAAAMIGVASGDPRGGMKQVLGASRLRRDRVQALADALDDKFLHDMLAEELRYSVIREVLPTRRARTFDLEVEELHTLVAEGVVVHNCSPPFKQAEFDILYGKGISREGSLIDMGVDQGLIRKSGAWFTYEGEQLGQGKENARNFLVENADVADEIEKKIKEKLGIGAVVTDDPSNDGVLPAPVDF

BJ [6] = assay: cytotoxicity toward BJ-TERT fibroblasts, dose response, cell-based, RAS-independent, luminescence (AID 1933); assay type: functional; conditions: Homo sapiens
INS1 = assay: beta cell apoptosis inhibitors, cytokine rescue, dose response, luminescence, retest (AID 449756); assay type: functional, cell-based; conditions: Rattus norvegicus;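 note: cell death triggered by IL-1 beta plus TNF-alpha plus IFN-gamma mixture; protective hits raise ATP signal compared with cytokine alone wells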
[7] = control 3'UTR Renilla luciferase suppression, dose response, counter-screen for Shn3 inhibitor project, cell-based, Clone20-Shn3RL, cherry-picked (AID 624133); assay type: functional
[8] = Fluorescence-based cell-based high throughput dose response assay for inhibitors of the interaction of nucleotide-binding oligomerization domain containing 2 (NOD2) and the receptor-interacting serine-threonine kinase 2 (RIPK2).; assay type: functional; conditions: Homo sapiens
[9] = Shn3 3'UTR reporter inhibitors, dose response, cell-based, Clone20 osteoblasts, firefly luciferase, cherry-picked (AID 624132); assay type: functional;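 note: firefly luciferase luminescence from reporter carrying the Shn3 3'UTR in osteoblasts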
BJ [10] = assay: cells; assay type: functional, cell-based; conditions: Homo sapiens
[11] = molecular target: T3, Replicative DNA helicase DnaB (Mycobacterium tuberculosis, UniProt P9WMR3); assay: DnaB intein splicing inhibitors, dose response, biochemical, cell-free fluorescence (AID 449749); assay type: functional
T3 sequence (P9WMR3 whole entry): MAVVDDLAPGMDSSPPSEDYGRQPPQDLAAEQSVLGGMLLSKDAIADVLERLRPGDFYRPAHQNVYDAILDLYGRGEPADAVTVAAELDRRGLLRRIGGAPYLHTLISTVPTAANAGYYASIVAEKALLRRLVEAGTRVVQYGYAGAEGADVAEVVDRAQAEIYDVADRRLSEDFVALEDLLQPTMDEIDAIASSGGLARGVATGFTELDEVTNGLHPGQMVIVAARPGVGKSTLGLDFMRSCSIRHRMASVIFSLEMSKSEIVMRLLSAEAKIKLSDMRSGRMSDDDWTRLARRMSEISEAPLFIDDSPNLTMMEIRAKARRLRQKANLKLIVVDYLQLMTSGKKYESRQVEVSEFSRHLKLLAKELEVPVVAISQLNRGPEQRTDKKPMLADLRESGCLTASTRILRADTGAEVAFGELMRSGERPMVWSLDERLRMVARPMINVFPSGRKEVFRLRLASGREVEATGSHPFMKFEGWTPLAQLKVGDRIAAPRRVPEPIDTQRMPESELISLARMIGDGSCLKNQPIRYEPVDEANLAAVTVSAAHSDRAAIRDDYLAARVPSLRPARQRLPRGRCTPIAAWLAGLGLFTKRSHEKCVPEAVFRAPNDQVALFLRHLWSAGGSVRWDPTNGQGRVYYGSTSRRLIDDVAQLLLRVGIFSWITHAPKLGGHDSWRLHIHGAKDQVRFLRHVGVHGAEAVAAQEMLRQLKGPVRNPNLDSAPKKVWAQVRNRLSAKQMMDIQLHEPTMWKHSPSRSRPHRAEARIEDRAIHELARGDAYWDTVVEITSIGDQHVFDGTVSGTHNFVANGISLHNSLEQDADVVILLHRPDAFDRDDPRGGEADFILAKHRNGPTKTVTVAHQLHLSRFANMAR

BJ [12] = assay: cytotoxicity toward Ras-transformed BJeLR fibroblasts, dose response, cell-based, alamar blue fluorescence, cherrypicked samples (AID 2631); assay type: functional; conditions: Homo sapiens;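 note: confirmatory dose-response assay in RAS-dependent BJ fibroblasts engineered with TERT, LT and ST, with cytotoxicity read by fluorescence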
[13] = inhibitors of firefly luciferase expression or activity, dose response, H4 neuroglioma cells, luminescence (AID 1990); assay type: functional, cell-based
H9c2 = assay: cells; assay type: functional, cell-based; conditions: Rattus norvegicus, H9c2, Myocardium;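 note: confirmatory concentration-response retest of ultra-high-throughput screening hits for modulation of myocardial damage; cell death induced by hydrogen peroxide oxidative stress; compound pretreatment for 60 min then peroxide exposure for 2 h; potency is for protecting the cells against peroxide damage rather than for killing them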
[14] = Vero cell cytotoxicity, dose response, cytotoxicity control for Vif-APOBEC3G degradation inhibitor project, Vero cells (AID 1117358); assay type: functional; conditions: Human immunodeficiency virus 1, Vero
Cytochrome P450 2C9 = Cytochrome P450 2C9 (Homo sapiens, UniProt P11712)
Chain of Cytochrome P450 2C9 (P11712 whole entry): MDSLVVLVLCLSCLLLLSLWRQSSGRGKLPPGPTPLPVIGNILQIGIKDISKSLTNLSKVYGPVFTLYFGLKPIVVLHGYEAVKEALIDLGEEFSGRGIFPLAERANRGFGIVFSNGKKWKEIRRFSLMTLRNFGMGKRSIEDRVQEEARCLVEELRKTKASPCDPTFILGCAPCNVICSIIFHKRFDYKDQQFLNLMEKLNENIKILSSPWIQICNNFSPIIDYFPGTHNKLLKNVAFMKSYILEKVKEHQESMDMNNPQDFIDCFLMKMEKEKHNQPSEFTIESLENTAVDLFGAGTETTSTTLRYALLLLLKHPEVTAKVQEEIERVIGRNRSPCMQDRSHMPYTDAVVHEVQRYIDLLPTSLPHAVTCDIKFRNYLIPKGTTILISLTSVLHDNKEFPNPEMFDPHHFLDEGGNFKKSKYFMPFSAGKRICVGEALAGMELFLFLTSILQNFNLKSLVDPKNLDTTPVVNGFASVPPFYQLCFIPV

Cytochrome P450 1A2 = molecular target: T4, Cytochrome P450 1A2 (Homo sapiens, UniProt P05177);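 note: PubChem cytochrome P450 panel assay, CYP1A2 panel member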
T4 sequence (P05177 whole entry): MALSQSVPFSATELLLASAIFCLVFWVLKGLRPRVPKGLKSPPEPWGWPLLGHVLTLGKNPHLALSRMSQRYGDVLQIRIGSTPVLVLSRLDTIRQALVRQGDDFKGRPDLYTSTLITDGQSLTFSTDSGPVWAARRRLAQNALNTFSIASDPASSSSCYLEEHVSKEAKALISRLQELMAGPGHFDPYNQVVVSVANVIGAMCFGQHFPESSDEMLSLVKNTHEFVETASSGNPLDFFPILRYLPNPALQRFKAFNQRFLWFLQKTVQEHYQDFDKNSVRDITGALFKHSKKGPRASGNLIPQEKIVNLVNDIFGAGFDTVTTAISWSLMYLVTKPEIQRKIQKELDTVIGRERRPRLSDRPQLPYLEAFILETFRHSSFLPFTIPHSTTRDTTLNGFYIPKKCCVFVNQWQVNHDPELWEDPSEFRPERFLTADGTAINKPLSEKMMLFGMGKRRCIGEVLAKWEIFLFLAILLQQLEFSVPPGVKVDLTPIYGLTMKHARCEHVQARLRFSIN

Cytochrome P450 2C19 = Cytochrome P450 2C19 (Homo sapiens, UniProt P33261); assay: Cytochrome panel assay with activity outcomes. Panel member name: p450-cyp2c19 Compounds with AC50 equal or less than 10 uM are considered active; assay type: functional; conditions: read-out: AC50
Chain of Cytochrome P450 2C19 (P33261 whole entry): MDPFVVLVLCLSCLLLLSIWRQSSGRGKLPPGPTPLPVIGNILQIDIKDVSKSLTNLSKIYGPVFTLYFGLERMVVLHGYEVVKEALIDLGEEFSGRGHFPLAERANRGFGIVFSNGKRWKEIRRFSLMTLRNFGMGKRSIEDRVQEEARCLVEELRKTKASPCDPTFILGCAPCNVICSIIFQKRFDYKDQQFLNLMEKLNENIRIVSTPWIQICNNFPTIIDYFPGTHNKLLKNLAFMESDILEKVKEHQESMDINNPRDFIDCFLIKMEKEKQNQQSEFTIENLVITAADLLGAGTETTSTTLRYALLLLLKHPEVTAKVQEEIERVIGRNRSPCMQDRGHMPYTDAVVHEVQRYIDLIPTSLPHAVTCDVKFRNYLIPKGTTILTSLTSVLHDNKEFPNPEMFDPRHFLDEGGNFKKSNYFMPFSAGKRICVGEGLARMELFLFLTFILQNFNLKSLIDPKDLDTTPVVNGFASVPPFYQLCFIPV

O=C(Nc1ccc2nc3n(c(=O)c2c1)CCCCC3)c1c(F)ccc([N+](=O)[O-])c1F
EC50 [1]: 4.04 µM (inconclusive) | AC50 (Caspase-6): 4.39 µM (active) | EC50 [2]: > 120 µM (not active) | EC50 [3]: > 120 µM (not active) | AC50 [4]: 12.5 µM (active) | EC50 (BJ [5]): 50.7 µM (inconclusive) | EC50 (Protein RecA): 5.17 µM (active) | EC50 (BJ [6]): 17.7 µM (active) | AC50 (INS1): 6.28 µM (active) | AC50 [7]: 4.65 µM (active) | IC50 [8]: 8.8 µM (active) | AC50 [9]: 2.3 µM (active) | EC50 (BJ [10]): > 150 µM (inconclusive) | AC50 [11]: 14.8 µM (active) | EC50 (BJ [12]): 0.571 µM (active) | EC50 [13]: > 120 µM (not active)

Cc1ccc(C)c2nc(O)c(CN(Cc3ccc4c(c3)OCO4)Cc3nnnn3Cc3ccco3)cc12
IC50 (H9c2): > 79 µM (inactive) | CC50 [14]: > 40 µM (active)

O=C(NNC(=O)c1ccccc1-n1cccc1)c1ccc(Cl)c(Cl)c1
AC50 (Cytochrome P450 2C9): inconclusive | AC50 (Cytochrome P450 1A2): 25.1 µM (inconclusive) | AC50 (Cytochrome P450 2C19): 3.98 µM (inconclusive) | CC50 [14]: > 40 µM (active)
